From patent publication US20260325533A1, “CDK INHIBITOR COMPOUNDS” (ALEKSIA THERAPEUTICS, INC., priority 2023, published 2026)
Like-named read-outs stand apart in the source and are kept apart here.

Columns and labels:
Assay type in all cases: biochemical
CDK2/CCNE1 = CDK2/CCNE1 (Homo sapiens, UniProt P24941); assay: CDK2 homogeneous time-resolved fluorescence (HTRF) kinase assay; settings: CDK2/CCNE
How it was run: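 An HTRF format measures CDK2/CCNE1 (3 nM) phosphorylating a 4E-BP1 Thr37/46 peptide at high (1 mM) ATP. Reactions run one hour at 23 °C, then EDTA-quenched and probed with Eu-labelled phospho-specific antibody.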

CDK1/CCNB1 = CDK1/CCNB1 (Homo sapiens, UniProt P06493); assay: CDK1 homogeneous time-resolved fluorescence (HTRF) kinase assay; settings: CDK1/CCNB
Sequence of CDK1/CCNB1 (P06493 whole entry): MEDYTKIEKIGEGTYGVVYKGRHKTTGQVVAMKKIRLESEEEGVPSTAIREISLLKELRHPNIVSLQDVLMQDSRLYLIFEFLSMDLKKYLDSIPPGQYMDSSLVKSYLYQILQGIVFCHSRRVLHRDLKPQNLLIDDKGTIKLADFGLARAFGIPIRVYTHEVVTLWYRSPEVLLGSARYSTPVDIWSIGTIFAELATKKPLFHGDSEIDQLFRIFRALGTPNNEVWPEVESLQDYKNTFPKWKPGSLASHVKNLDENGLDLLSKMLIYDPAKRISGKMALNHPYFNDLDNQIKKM
Sequence of CDK1/CCNB1 (P14635 whole entry partner): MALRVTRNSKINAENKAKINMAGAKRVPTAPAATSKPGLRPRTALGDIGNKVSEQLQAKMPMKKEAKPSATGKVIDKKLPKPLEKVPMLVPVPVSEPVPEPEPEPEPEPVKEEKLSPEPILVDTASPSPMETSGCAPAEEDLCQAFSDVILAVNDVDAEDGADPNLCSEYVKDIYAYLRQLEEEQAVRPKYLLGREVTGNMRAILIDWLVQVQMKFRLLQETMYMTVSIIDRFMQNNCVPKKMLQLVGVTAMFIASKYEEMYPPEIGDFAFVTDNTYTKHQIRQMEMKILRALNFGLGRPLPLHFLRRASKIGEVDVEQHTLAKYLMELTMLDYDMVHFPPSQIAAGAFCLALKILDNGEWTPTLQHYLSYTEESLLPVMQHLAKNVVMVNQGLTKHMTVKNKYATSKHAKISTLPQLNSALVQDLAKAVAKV
How it was run: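 High-ATP (1 mM) HTRF assay with 0.5 nM CDK1/cyclin B1 and 50 nM ULight-4E-BP1 (Thr37/46) substrate, 60 min at 23 °C after 20-min compound preincubation. IC50 values come from dose-response curves.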

CDK4/CCND3 = CDK4/CCND3 (Homo sapiens, UniProt P11802); assay: CDK4 homogeneous time-resolved fluorescence (HTRF) kinase assay; settings: CDK4/CCND
Sequence of CDK4/CCND3 (P11802 whole entry): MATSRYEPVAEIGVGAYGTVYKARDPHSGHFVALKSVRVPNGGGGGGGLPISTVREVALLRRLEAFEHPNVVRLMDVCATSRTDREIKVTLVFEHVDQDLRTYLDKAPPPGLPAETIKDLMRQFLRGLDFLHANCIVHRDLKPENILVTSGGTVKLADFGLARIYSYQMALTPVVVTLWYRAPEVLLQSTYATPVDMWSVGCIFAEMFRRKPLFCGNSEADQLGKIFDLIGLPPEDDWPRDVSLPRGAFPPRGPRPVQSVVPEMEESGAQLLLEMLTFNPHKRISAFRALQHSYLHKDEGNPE
Sequence of CDK4/CCND3 (P30281 whole entry partner): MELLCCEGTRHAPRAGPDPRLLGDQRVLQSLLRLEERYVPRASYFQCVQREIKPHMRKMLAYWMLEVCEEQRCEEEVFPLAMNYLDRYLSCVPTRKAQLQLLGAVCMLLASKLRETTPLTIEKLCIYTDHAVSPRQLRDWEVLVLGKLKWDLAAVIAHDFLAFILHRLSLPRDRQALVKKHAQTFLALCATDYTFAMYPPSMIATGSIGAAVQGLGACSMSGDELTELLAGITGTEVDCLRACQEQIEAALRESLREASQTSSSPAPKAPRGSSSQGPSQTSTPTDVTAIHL
How it was run: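 IC50s derive from Lance 665 nm or 665/615 nm signals in 11-point, half-log dose series (top 10 μM, 1% DMSO). The enzyme, 1.5 nM CDK4/CCND3, phosphorylates 50 nM ULight-4E-BP1 peptide with 1 mM ATP over 60 min at 23 °C.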

CDK6/CCND1 = CDK6/CCND1 (Homo sapiens, UniProt Q00534); assay: CDK6 homogeneous time-resolved fluorescence (HTRF) kinase assay; settings: CDK6/CCND, 1 mM ATP
Sequence of CDK6/CCND1 (Q00534 whole entry): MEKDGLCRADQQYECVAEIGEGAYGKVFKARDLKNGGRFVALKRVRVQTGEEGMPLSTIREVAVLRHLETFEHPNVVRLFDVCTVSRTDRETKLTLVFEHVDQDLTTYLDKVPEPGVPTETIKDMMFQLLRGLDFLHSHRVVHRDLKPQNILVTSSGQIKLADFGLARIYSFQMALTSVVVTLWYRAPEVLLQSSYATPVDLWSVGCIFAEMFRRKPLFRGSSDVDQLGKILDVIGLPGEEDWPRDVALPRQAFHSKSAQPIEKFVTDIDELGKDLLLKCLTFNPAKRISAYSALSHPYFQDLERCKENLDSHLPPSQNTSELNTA
Sequence of CDK6/CCND1 (P24385 whole entry partner): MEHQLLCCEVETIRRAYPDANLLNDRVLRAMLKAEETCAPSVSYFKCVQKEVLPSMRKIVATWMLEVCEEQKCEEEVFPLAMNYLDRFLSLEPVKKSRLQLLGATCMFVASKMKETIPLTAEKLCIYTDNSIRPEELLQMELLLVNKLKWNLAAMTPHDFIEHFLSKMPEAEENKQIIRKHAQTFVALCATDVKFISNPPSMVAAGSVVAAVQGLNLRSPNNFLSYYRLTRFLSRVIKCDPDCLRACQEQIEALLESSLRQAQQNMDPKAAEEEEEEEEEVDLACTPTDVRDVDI
How it was run: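 Assay conditions: HEPES buffer containing 10 mM MgCl2, 1 mM EGTA, 2 mM DTT, 0.01% Tween 20; 1 nM CDK6/CCND1, 50 nM peptide substrate, 1 mM ATP. Detection after 60 min reaction used 2 nM europium antibody with 340 nm excitation. Potency fitted from half-log series, 11 points.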

[1] = <25 nM, read-out: CDK2/CCNE IC50, <25 nM
[2] = 25-250 nM, read-out: CDK1/CCNB IC50, 25-250 nM
[3] = 25-250 nM, read-out: CDK4/CCND IC50, 25-250 nM
[4] = 25-250 nM, read-out: CDK6/CCND IC50, 25-250 nM
[5] = >250 nM, read-out: CDK1/CCNB IC50 >250 nM
[6] = 25-250 nM, read-out: CDK2/CCNE IC50, 25-250 nM
[7] = >250 nM, read-out: CDK4/CCND IC50, >250 nM
[8] = >250 nM, read-out: CDK6/CCND IC50, >250 nM

Row | IC50 (CDK2/CCNE1; [1]) [nM] | IC50 (CDK1/CCNB1; [2]) [nM] | IC50 (CDK4/CCND3; [3]) [nM] | IC50 (CDK6/CCND1; [4]) [nM] | IC50 (CDK1/CCNB1; [5]) [nM] | IC50 (CDK2/CCNE1; [6]) [nM] | IC50 (CDK4/CCND3; [7]) [nM] | IC50 (CDK6/CCND1; [8]) [nM] | IC50 (CDK2/CCNE1; >250 nM, read-out: CDK2/CCNE IC50, >250 nM) [nM] | SMILES
1 | < 25 | 25 to 250 | 25 to 250 | 25 to 250 |  |  |  |  |  | Cc1c(-c2nccc3cnc(Nc4ccc(S(N)(=O)=O)cc4)cc23)ccc2c1cnn2CC(C)(C)O [Ex 921, 4-((5-(1-(2-hydroxy-2-methylpropyl)-4-methyl-1H-indazol-5-yl)-2,6-naphthyridin-3-yl)amino)benzenesulfonamide]
2 | < 25 |  | 25 to 250 | 25 to 250 | > 250 |  |  |  |  | Cc1c(-c2nccc3cnc(Nc4ccc(S(=O)(=O)N5CCOCC5)cc4)cc23)ccc2c1cnn2CC(C)(C)O [Ex 922, 2-methyl-1-(4-methyl-5-(7-((4-(morpholinosulfonyl)phenyl)amino)-2,6-naphthyridin-1-yl)-1H-indazol-1-yl)propan-2-ol]
3 | < 25 |  | 25 to 250 | 25 to 250 | > 250 |  |  |  |  | Cc1c(-c2nccc3cnc(Nc4ccc(S(=O)(=O)Nc5ccccn5)cc4)cc23)ccc2c1cnn2CC(C)(C)O [Ex 924, 4-((5-(1-(2-hydroxy-2-methylpropyl)-4-methyl-1H-indazol-5-yl)-2,6-naphthyridin-3-yl)amino)-N-(pyridin-2-yl)benzenesulfonamide]
4 |  |  |  |  | > 250 | 25 to 250 | > 250 | > 250 |  | Cc1c(-c2nccc3cnc(Nc4cccc(C(=O)Nc5ccccc5)c4)cc23)ccc2c1cnn2CC(C)(C)O [Ex 929, 3-((5-(1-(2-hydroxy-2-methylpropyl)-4-methyl-1H-indazol-5-yl)-2,6-naphthyridin-3-yl)amino)-N-phenylbenzamide]
5 | < 25 |  | 25 to 250 |  | > 250 |  |  | > 250 |  | Cc1c(-c2nccc3cnc(Nc4ccc(=O)n(C)n4)cc23)ccc2c1cnn2CC(C)(C)O [Ex 932, 6-((5-(1-(2-hydroxy-2-methylpropyl)-4-methyl-1H-indazol-5-yl)-2,6-naphthyridin-3-yl)amino)-2-methylpyridazin-3(2H)-one]
6 |  |  |  |  | > 250 | 25 to 250 | > 250 | > 250 |  | N#Cc1ccc(C#Cc2nccc3cnc(Nc4ccc(S(=O)(=O)N5CCOCC5)cc4)cc23)cc1 [Ex 934, 4-((7-((4-(morpholinosulfonyl)phenyl)amino)-2,6-naphthyridin-1-yl)ethynyl)benzonitrile]
7 |  |  |  |  | > 250 | 25 to 250 | > 250 | > 250 |  | N#Cc1ccc(C#Cc2nccc3cnc(Nc4ccc(S(=O)(=O)Nc5ccccn5)cc4)cc23)cc1 [Ex 935, 4-((5-((4-cyanophenyl)ethynyl)-2,6-naphthyridin-3-yl)amino)-N-(pyridin-2-yl)benzenesulfonamide]
8 | < 25 | 25 to 250 | 25 to 250 | 25 to 250 |  |  |  |  |  | Cc1c(-c2nccc3cnc(Nc4ccc(NS(C)(=O)=O)cc4)cc23)ccc2c1cnn2CC(C)(C)O [Ex 938, N-(4-((5-(1-(2-hydroxy-2-methylpropyl)-4-methyl-1H-indazol-5-yl)-2,6-naphthyridin-3-yl)amino)phenyl)methanesulfonamide]
9 |  |  |  |  | > 250 | 25 to 250 | > 250 | > 250 |  | Cc1c(-c2nccc3cnc(Nc4ccnc(OCc5ccccc5)c4)cc23)ccc2c1cnn2CC(C)(C)O [Ex 939, 1-(5-(7-((2-(benzyloxy)pyridin-4-yl)amino)-2,6-naphthyridin-1-yl)-4-methyl-1H-indazol-1-yl)-2-methylpropan-2-ol]
10 |  |  |  |  | > 250 | 25 to 250 | > 250 | > 250 |  | CS(=O)(=O)Nc1ccc(Nc2cc3c(C#Cc4ccc(C#N)cc4)nccc3cn2)cc1 [Ex 940, N-(4-((5-((4-cyanophenyl)ethynyl)-2,6-naphthyridin-3-yl)amino)phenyl)methanesulfonamide]
11 |  |  |  |  | > 250 | 25 to 250 | > 250 | > 250 |  | COc1ccc(C#Cc2nccc3cnc(Nc4ccc(S(C)(=O)=O)cc4)cc23)cc1 [Ex 941, 5-((4-methoxyphenyl)ethynyl)-N-(4-(methylsulfonyl)phenyl)-2,6-naphthyridin-3-amine]

The next lines start with the molecule.

Row | SMILES | IC50 (CDK2/CCNE1; [1]) [nM] | IC50 (CDK1/CCNB1; [2]) [nM] | IC50 (CDK4/CCND3; [3]) [nM] | IC50 (CDK6/CCND1; [4]) [nM] | IC50 (CDK1/CCNB1; [5]) [nM] | IC50 (CDK2/CCNE1; [6]) [nM] | IC50 (CDK4/CCND3; [7]) [nM] | IC50 (CDK6/CCND1; [8]) [nM] | IC50 (CDK2/CCNE1; >250 nM, read-out: CDK2/CCNE IC50, >250 nM) [nM]
12 | Cc1c(-c2nccc3cnc(Nc4ccc(S(=O)(=O)N5CCCCC5)cc4)cc23)ccc2c1cnn2CC(C)(C)O [Ex 923, 2-methyl-1-(4-methyl-5-(7-((4-(piperidin-1-ylsulfonyl)phenyl)amino)-2,6-naphthyridin-1-yl)-1H-indazol-1-yl)propan-2-ol] |  |  |  |  | > 250 | 25 to 250 | > 250 | > 250 | 
13 | Cc1c(-c2nccc3cnc(Nc4ccc(S(=O)(=O)O)cc4)cc23)ccc2c1cnn2CC(C)(C)O [Ex 925, 4-((5-(1-(2-hydroxy-2-methylpropyl)-4-methyl-1H-indazol-5-yl)-2,6-naphthyridin-3-yl)amino)benzenesulfonic acid] |  |  |  |  | > 250 | 25 to 250 | > 250 | > 250 | 
14 | Cc1cc(C)nc(NS(=O)(=O)c2ccc(Nc3cc4c(-c5ccc6c(cnn6CC(C)(C)O)c5C)nccc4cn3)cc2)n1 [Ex 926, N-(4,6-dimethylpyrimidin-2-yl)-4-((5-(1-(2-hydroxy-2-methylpropyl)-4-methyl-1H-indazol-5-yl)-2,6-naphthyridin-3-yl)amino)benzenesulfonamide] | < 25 | 25 to 250 |  | 25 to 250 |  |  | > 250 |  | 
15 | Cc1c(-c2nccc3cnc(Nc4ccc(S(=O)(=O)Nc5ncccn5)cc4)cc23)ccc2c1cnn2CC(C)(C)O [Ex 927, 4-((5-(1-(2-hydroxy-2-methylpropyl)-4-methyl-1H-indazol-5-yl)-2,6-naphthyridin-3-yl)amino)-N-(pyrimidin-2-yl)benzenesulfonamide] | < 25 |  |  |  | > 250 |  | > 250 | > 250 | 
16 | Cc1c(-c2nccc3cnc(Nc4ccc(-n5ccnc5)cc4)cc23)ccc2c1cnn2CC(C)(C)O [Ex 928, 1-(5-(7-((4-(1H-imidazol-1-yl)phenyl)amino)-2,6-naphthyridin-1-yl)-4-methyl-1H-indazol-1-yl)-2-methylpropan-2-ol] | < 25 | 25 to 250 | 25 to 250 | 25 to 250 |  |  |  |  | 
17 | Cc1c(-c2nccc3cnc(Nc4ccc(S(C)(=O)=O)c(N5CCN(C)CC5)c4)cc23)ccc2c1cnn2CC(C)(C)O [Ex 931, 2-methyl-1-(4-methyl-5-(7-((3-(4-methylpiperazin-1-yl)-4-(methylsulfonyl)phenyl)amino)-2,6-naphthyridin-1-yl)-1H-indazol-1-yl)propan-2-ol] |  |  |  |  | > 250 | 25 to 250 | > 250 | > 250 | 
18 | CN1CCN(S(=O)(=O)c2ccc(Nc3cc4c(C#Cc5ccc(C#N)cc5)nccc4cn3)cc2)CC1 [Ex 933, 4-((7-((4-((4-methylpiperazin-1-yl)sulfonyl)phenyl)amino)-2,6-naphthyridin-1-yl)ethynyl)benzonitrile] |  |  |  |  | > 250 |  | > 250 | > 250 | > 250
19 | Cc1cc(C)nc(NS(=O)(=O)c2ccc(Nc3cc4c(C#Cc5ccc(C#N)cc5)nccc4cn3)cc2)n1 [Ex 936, 4-((5-((4-cyanophenyl)ethynyl)-2,6-naphthyridin-3-yl)amino)-N-(4,6-dimethylpyrimidin-2-yl)benzenesulfonamide] | < 25 |  |  |  | > 250 |  | > 250 | > 250 | 
20 | Cc1c(-c2nccc3cnc(Nc4ccc(C(=O)Nc5ccccc5)cc4)cc23)ccc2c1cnn2CC(C)(C)O [Ex 937, 4-((5-(1-(2-hydroxy-2-methylpropyl)-4-methyl-1H-indazol-5-yl)-2,6-naphthyridin-3-yl)amino)-N-phenylbenzamide] | < 25 |  |  |  | > 250 |  | > 250 | > 250 | 
21 | CS(=O)(=O)c1cccc(Nc2cc3c(C#Cc4ccc(C#N)cc4)nccc3cn2)c1 [Ex 942, 4-((7-((3-(methylsulfonyl)phenyl)amino)-2,6-naphthyridin-1-yl)ethynyl)benzonitrile] |  |  |  |  | > 250 | 25 to 250 | > 250 | > 250 | 
22 | Cn1cc(Nc2cc3c(C#Cc4ccc(C#N)cc4)nccc3cn2)cn1 [Ex 943, 4-((7-((1-methyl-1H-pyrazol-4-yl)amino)-2,6-naphthyridin-1-yl)ethynyl)benzonitrile] |  |  |  |  | > 250 | 25 to 250 | > 250 | > 250 | 
